Data from patent US8580763B2, “2, 6-dinitrogen-containing substituted purine derivatives, the preparation and uses thereof” (Zhanggui Wu, priority 2007, dated 2013).

Key:
lymph cancer Ramos = assay: anticancer activity in vitro (SRB, MTT), lymph cancer Ramos; assay type: cell-based; details: Homo sapiens, action time about 72 h
Protocol: (§1) Antitumor activity tests in vitro and in vivo are carried out to the parital compounds prepared from the above examples. Wherein the method of SRB, MTT is used in vitro, and the action time is about 72 h. Inhibitory effects of the compounds on the growth of mouse Conlon26 cancer are shown in Table 2, inhibitory effects of the compounds on the growth of mouse S180 sarcoma are shown in Table 3.

colon cancer HT-29 = assay: anticancer activity in vitro (SRB, MTT), colon cancer HT-29; assay type: cell-based; details: Homo sapiens, action time about 72 h
Protocol: as §1

[1] = tested on: non-small cell lung cancer; assay: anticancer activity in vitro (SRB, MTT), non-small cell lung cancer; assay type: cell-based; details: action time about 72 h
Protocol: as §1

[2] = tested on: human liver cancer Bel-7402; assay: anticancer activity in vitro (SRB, MTT), human liver cancer Bel-7402; assay type: cell-based; details: action time about 72 h
Protocol: as §1

[3] = tested on: four different cancer cells; assay: antitumor activity in vitro, summary over the four cancer cells of Table 1; assay type: cell-based; details: summary of Table 1
Protocol: as §1
Compared with compound I, compound XX has better antitumor effects.

mouse Colon26 cancer = assay: inhibitory effects on the growth of mouse Colon26 cancer in vivo; details: Colon26 mice; for Initial body weight: baseline
Protocol: as §1

mouse S180 sarcoma = assay: inhibitory effects on the growth of mouse S180 sarcoma in vivo; details: S180 mice; for Initial body weight: baseline
Protocol: as §1

IC50 (lymph cancer Ramos) [µM] | IC50 (colon cancer HT-29) [µM] | IC50 [1] [µM] | IC50 [2] [µM] | SMILES | other results
2.63 | 5.72 | 13.2 | 5.91 | COc1cc(Nc2nc(NC3CC3)c3nc[nH]c3n2)cc2cccnc12 [Compound XXIII] | 
4.14 | 16.8 | 7.55 | 4.89 | c1cc(Nc2nc(NC3CC3)c3nc[nH]c3n2)ccn1 [Compound XXIX] | 
51.9 | 81.4 | 61.4 | 80.2 | c1ccc(Nc2nc(NC3CC3)c3nc[nH]c3n2)nc1 [Compound XXVIII] | 
5.28 | 2.25 | 13.8 | 5.28 | Cc1cc(Nc2nc(NC3CC3)c3nc[nH]c3n2)c2ccccc2n1 [Compound XXV] | 

Continued, compound first:

SMILES | IC50 (lymph cancer Ramos) [µM] | IC50 (colon cancer HT-29) [µM] | IC50 [1] [µM] | IC50 [2] [µM] | other results
FC(F)(F)c1cc(Nc2nc(NC3CC3)c3nc[nH]c3n2)cc2cccnc12 [Compound XXIV] | > 100 | > 100 | 11.7 | > 100 | 
c1cnc2ccc(Nc3nc(N4CCNCC4)c4nc[nH]c4n3)cc2c1 [Compound XXI] | 2.33 | 2.74 | 6.27 | 2.33 | antitumor activity to four different cancer cells (in words) [3]: higher antitumor activity
O=[N+]([O-])c1ccc(Nc2nc(NC3CC3)c3nc[nH]c3n2)cc1 [Compound XXX] | > 100 | > 100 | 11.1 | > 100 | 
CN(C)c1nc(Nc2ccc3ncccc3c2)nc2[nH]cnc12 [Compound XX] |  |  |  |  | End body weight (mouse Colon26 cancer; 100 mg/kg p.o.): 18.74 g; Inhibition rate (mouse Colon26 cancer; 100 mg/kg p.o.): 72.31%; Tumor removed body weight (mouse Colon26 cancer; 100 mg/kg p.o.): 18.23 g; Tumor weight (mouse Colon26 cancer; 100 mg/kg p.o.): 0.51 g; Initial body weight (mouse Colon26 cancer; 100 mg/kg p.o.): 19.64 g; End body weight (mouse Colon26 cancer; 150 mg/kg p.o.): 18.68 g; Inhibition rate (mouse Colon26 cancer; 150 mg/kg p.o.): 79.47%; Tumor removed body weight (mouse Colon26 cancer; 150 mg/kg p.o.): 18.31 g; Tumor weight (mouse Colon26 cancer; 150 mg/kg p.o.): 0.38 g; Initial body weight (mouse Colon26 cancer; 150 mg/kg p.o.): 19.90 g; End body weight (mouse S180 sarcoma; 100 mg/kg p.o.): 16.53 g; Inhibition rate (mouse S180 sarcoma; 100 mg/kg p.o.): 72.19%; Tumor removed body weight (mouse S180 sarcoma; 100 mg/kg p.o.): 15.90 g; Tumor weight (mouse S180 sarcoma; 100 mg/kg p.o.): 0.63 g; Initial body weight (mouse S180 sarcoma; 100 mg/kg p.o.): 19.96 g; End body weight (mouse S180 sarcoma; 200 mg/kg p.o.): 16.80 g; Inhibition rate (mouse S180 sarcoma; 200 mg/kg p.o.): 73.38%; Tumor removed body weight (mouse S180 sarcoma; 200 mg/kg p.o.): 16.20 g; Tumor weight (mouse S180 sarcoma; 200 mg/kg p.o.): 0.61 g; Initial body weight (mouse S180 sarcoma; 200 mg/kg p.o.): 19.58 g
CC(CO)Nc1nc(Nc2ccc3ncccc3c2)nc2[nH]cnc12 (centres unmarked) [Compound X] | 4.96 | 24.2 | 12.5 | 1.78 | 
